Experimental data taken from patent US20060263802A1 (priority 2003, published 2006).

Legend:
Assay type in all cases: binding
[1] = tested on: human monoclonal antibody CRJB
[2] = tested on: human monoclonal antibody CR57
[3] = tested on: human monoclonal antibody CRJB; remark: listed apart in the source
[4] = tested on: human monoclonal antibody CR57; remark: listed apart in the source
[5] = tested on: human monoclonal antibody CRJA
[6] = tested on: human monoclonal antibody CRJA; remark: listed apart in the source

Row | Sequence | Binding of CRJB (10 μg/ml) to looped/cyclic peptide (PEPSCAN-ELISA signal) [1] | Binding of CR57 to linear peptide (PEPSCAN-ELISA signal) [2] | Binding of CRJB to linear peptide (PEPSCAN-ELISA signal) [3] | Binding of CR57 (10 μg/ml) to looped/cyclic peptide (PEPSCAN-ELISA signal) [4] | Binding of CRJA (10 μg/ml) to looped/cyclic peptide (PEPSCAN-ELISA signal) [5] | Binding of CRJA to linear peptide (PEPSCAN-ELISA signal) [6] | Binding of CRJB (10 μg/ml) to looped/cyclic peptide (PEPSCAN-ELISA) [1] | Binding of CR57 (10 μg/ml) to looped/cyclic peptide (PEPSCAN-ELISA) [4] | Binding of CRJA (10 μg/ml) to looped/cyclic peptide (PEPSCAN-ELISA) [5] | binding of antibody CR57 to looped/cyclic peptide (PEPSCAN OD) [4] | Binding of CRJB to looped/cyclic peptide (PEPSCAN-ELISA signal) [1] | Binding of human monoclonal antibody CR57 to linear peptide (PEPSCAN-ELISA signal) [2] | Binding of human monoclonal antibody CRJB to linear peptide (PEPSCAN-ELISA signal) [3] | Binding of CR57 to looped/cyclic peptide (PEPSCAN-ELISA signal) [4] | Binding of CRJA to looped/cyclic peptide (PEPSCAN-ELISA signal) [5] | Binding of human monoclonal antibody CRJA to linear peptide (PEPSCAN-ELISA signal) [6]
1 | GPWSPIDIHHLSCPN | 78 | 68 | 114 | 78 | 97 | 72 | – | – | – | – | – | – | – | – | – | –
2 | GRCHPHVNGVFFNGI | – | 117 | 113 | – | – | 100 | 102 | 110 | 104 | – | – | – | – | – | – | –
3 | GSETCGFVDERGLYK | – | 57 | 115 | – | – | 56 | 71 | 64 | 64 | – | – | – | – | – | – | –
4 | GTWVAMQTSNETKWC | – | 58 | 113 | – | – | 61 | 85 | 71 | 62 | – | – | – | – | – | – | –
5 | GVAVSSTYCSTNHDY | 80 | 79 | 114 | 111 | 96 | 83 | – | – | – | – | – | – | – | – | – | –
6 | GVFFNGIILGPDGNV | – | 58 | 116 | – | – | 84 | 85 | 57 | 68 | – | – | – | – | – | – | –
7 | GVLGLRLMDGTWVAM | – | 89 | 148 | – | – | 107 | 83 | 118 | 104 | – | – | – | – | – | – | –
8 | GVVTEAENYTNFVGY | 71 | 86 | 111 | 83 | 90 | 76 | – | – | – | – | – | – | – | – | – | –
9 | GYILAIKMNGFTCTG | 61 | 75 | 90 | 87 | 72 | 73 | – | – | – | – | – | – | – | – | – | –
10 | GYVTTTFKRKHFRPT | 138 | 70 | 123 | 200 | 101 | 87 | – | – | – | clearly bound | – | – | – | – | – | –
11 | HDFRSDEIEHLVVEE | – | 69 | 107 | – | – | 78 | 79 | 24 | 111 | – | – | – | – | – | – | –
12 | HDYTIWMPENPRLGM | 96 | 82 | 125 | 88 | 97 | 110 | – | – | – | – | – | – | – | – | – | –
13 | HFRPTPDACRAAYNW | 71 | 46 | 113 | 65 | 62 | 93 | – | – | – | – | – | – | – | – | – | –
14 | HHLSCPNNLVVEDEG | 58 | 56 | 76 | 66 | 96 | 72 | – | – | – | – | – | – | – | – | – | –
15 | HLPDVHNQVSGVDLG | – | – | – | – | – | – | – | – | – | – | 93 | 104 | 150 | 119 | 87 | 96
16 | HLRKLVPGFGKAYTI | – | 99 | 111 | – | – | 116 | 93 | 118 | 120 | – | – | – | – | – | – | –
17 | HLSCPNNLVVEDEGC | 64 | 65 | 119 | 76 | 92 | 76 | – | – | – | – | – | – | – | – | – | –
18 | HLVVEELVRKREECL | – | 82 | 123 | – | – | 111 | 105 | 110 | 110 | – | – | – | – | – | – | –
19 | HMELLESSVIPLVHP | – | 110 | 129 | – | – | 114 | 104 | 118 | 106 | – | – | – | – | – | – | –
20 | HNPYPDYRWLRTVKT | 69 | 86 | 108 | 85 | 65 | 98 | – | – | – | – | – | – | – | – | – | –
21 | HNQVSGVDLGLPNWG | – | – | – | – | – | – | – | – | – | – | 100 | 76 | 106 | 78 | 55 | 66
22 | HPHVNGVFFNGIILG | – | 104 | 138 | – | – | 89 | 99 | 104 | 91 | – | – | – | – | – | – | –
23 | HPLADPSTVFKDGDE | – | – | – | – | – | – | – | – | – | – | 93 | 74 | 141 | 111 | 115 | 100
24 | HSRVFPSGKCSGVAV | 104 | 97 | 118 | 138 | 113 | 111 | – | – | – | – | – | – | – | – | – | –
25 | HVNGVFFNGIILGPD | – | 97 | 123 | – | – | 108 | 92 | 97 | 105 | – | – | – | – | – | – | –
26 | HYKSVRTWNEILPSK | – | 80 | 130 | – | – | 87 | 101 | 112 | 100 | – | – | – | – | – | – | –
27 | IDIHHLSCPNNLVVE | 59 | 69 | 102 | 55 | 55 | 61 | – | – | – | – | – | – | – | – | – | –
28 | IEHLVVEELVRKREE | – | 90 | 129 | – | – | 100 | 112 | 103 | 112 | – | – | – | – | – | – | –
29 | IFNKTLMEADAHYKS | – | 100 | 118 | – | – | 87 | 86 | 107 | 98 | – | – | – | – | – | – | –
